How the values were obtained:
[1] = test system: HL-60; test: Cytotoxicity against human HL-60 cells assessed as reduction in cell viability incubated for 72 hrs by MTT assay; assay type: functional, cell-based; settings: HL-60, 72 h
[2] = test system: B16; test: Cytotoxicity against mouse B16 cells assessed as reduction in cell viability incubated for 72 hrs by MTT assay; assay type: functional, cell-based; settings: B16, 72 h
[3] = test system: HCT-8; test: Cytotoxicity against human HCT-8 cells assessed as reduction in cell viability incubated for 72 hrs by MTT assay; assay type: functional, cell-based; settings: HCT-8, 72 h
[4] = test system: Enterococcus faecalis; test: Antibacterial activity against Enterococcus faecalis clinical isolates assessed as bacterial growth inhibition by broth macrodilution method; assay type: functional
[5] = test system: SF-295; test: Cytotoxicity against human SF-295 cells assessed as reduction in cell viability incubated for 72 hrs by MTT assay; assay type: functional, cell-based; settings: SF-295, 72 h
[6] = test system: PC-3; test: Cytotoxicity against human PC-3 cells assessed as reduction in cell viability incubated for 72 hrs by MTT assay; assay type: functional, cell-based; settings: PC-3, 72 h
[7] = test system: MDA-MB-435; test: Cytotoxicity against human MDA-MB-435 cells assessed as reduction in cell viability incubated for 72 hrs by MTT assay; assay type: functional, cell-based; settings: MDA-MB-435, 72 h
[8] = Selectivity index, ratio of IC50 for human PBMC cells to IC50 for human K562 cells; assay type: toxicity; settings: PBMC cells versus K562 cells, read-out: Ratio IC50
[9] = test system: K562; test: Cytotoxicity against human K562 cells assessed as reduction in cell viability incubated for 72 hrs by MTT assay; assay type: functional, cell-based; settings: K562, 72 h
[10] = test system: HCT-116; test: Cytotoxicity against human HCT-116 cells assessed as reduction in cell viability incubated for 72 hrs by MTT assay; assay type: functional, cell-based; settings: HCT-116, 72 h
[11] = Selectivity index, ratio of IC50 for human PBMC cells to IC50 for human HCT-116 cells; assay type: toxicity; settings: PBMC cells versus HCT-116 cells, read-out: Ratio IC50
[12] = test system: Staphylococcus aureus; test: Antibacterial activity against Staphylococcus aureus 2065 MA assessed as diameter of bacterial growth inhibition by Mueller-Hinton broth based assay; assay type: functional
[13] = test system: Plasmodium berghei; test: Antiplasmodial activity against Plasmodium berghei infected in Swiss mouse assessed as reduction in parasite growth at 200 mg/kg, sc administered for 7 days; assay type: functional; settings: 168 h, time 7 day
[14] = test system: SNB-19; test: Cytotoxicity against human SNB-19 cells assessed as reduction in cell viability incubated for 72 hrs by MTT assay; assay type: functional, cell-based; settings: SNB-19, 72 h
[15] = Cytotoxicity against mouse L929 cells assessed as reduction in cell viability incubated for 72 hrs by MTT assay; assay type: toxicity, cell-based
[16] = test system: B16-F10; test: Cytotoxicity against mouse B16-F10 cells assessed as reduction in cell viability incubated for 72 hrs by MTT assay; assay type: functional, cell-based; settings: B16-F10, 72 h
[17] = test system: MCF7; test: Cytotoxicity against human MCF7 cells assessed as reduction in cell viability incubated for 72 hrs by MTT assay; assay type: functional, cell-based; settings: MCF7, 72 h
[18] = test system: Mycobacterium tuberculosis; test: Antimycobacterial activity against Mycobacterium tuberculosis H37Rv ATCC 27294 assessed as bacterial growth inhibition incubated for 5 days by Alamar blue reagent based assay; assay type: functional; settings: ATCC 27294, 120 h, time 5 day
[19] = test system: Sporothrix; test: Antifungal activity against Sporothrix brasiliensis assessed as fungal growth inhibition incubated for 48 hrs by CLSI-based broth microdilution assay; assay type: functional
[20] = test system: Sporothrix schenckii; test: Antifungal activity against Sporothrix schenckii assessed as fungal growth inhibition incubated for 48 hrs by CLSI-based broth microdilution assay; assay type: functional
[21] = test system: Sporothrix; test: Antifungal activity against Sporothrix brasiliensis assessed as fungal growth inhibition incubated for 48 hrs in presence of itraconazole by CLSI-based broth microdilution assay; assay type: functional
[22] = test system: Sporothrix schenckii; test: Antifungal activity against Sporothrix schenckii assessed as fungal growth inhibition incubated for 48 hrs in presence of itraconazole by CLSI-based broth microdilution assay; assay type: functional
[23] = test system: NCI-H460; test: Cytotoxicity against human NCI-H460 cells assessed as reduction in cell viability incubated for 72 hrs by MTT assay; assay type: functional, cell-based; settings: NCI-H460, 72 h
[24] = test system: Hs-578T; test: Cytotoxicity against human Hs-578T cells assessed as reduction in cell viability incubated for 72 hrs by MTT assay; assay type: functional, cell-based
[25] = test system: HCT-15; test: Cytotoxicity against human HCT-15 cells assessed as reduction in cell viability incubated for 72 hrs by MTT assay; assay type: functional, cell-based; settings: HCT-15, 72 h
[26] = test system: MDA-MB-231; test: Cytotoxicity against human MDA-MB-231 cells assessed as reduction in cell viability incubated for 72 hrs by MTT assay; assay type: functional, cell-based; settings: MDA-MB-231, 72 h
[27] = test system: UACC-62; test: Cytotoxicity against human UACC-62 cells assessed as reduction in cell viability incubated for 72 hrs by MTT assay; assay type: functional, cell-based; settings: UACC-62, 72 h
[28] = test system: MOLT-4; test: Cytotoxicity against human MOLT-4 cells assessed as reduction in cell viability incubated for 72 hrs by MTT assay; assay type: functional, cell-based; settings: MOLT-4, 72 h
[29] = test system: SW-620; test: Cytotoxicity against human SW-620 cells assessed as reduction in cell viability incubated for 72 hrs by MTT assay; assay type: functional, cell-based; settings: SW-620, 72 h
[30] = test system: CCRF-CEM; test: Cytotoxicity against human CEM cells assessed as reduction in cell viability incubated for 72 hrs by MTT assay; assay type: functional, cell-based
[31] = test system: NCI-H358; test: Cytotoxicity against human NCI-H358 cells assessed as reduction in cell viability incubated for 72 hrs by MTT assay; assay type: functional, cell-based; settings: NCI-H358, 72 h
[32] = test system: OVCAR-8; test: Cytotoxicity against human OVCAR-8 cells assessed as reduction in cell viability incubated for 72 hrs by MTT assay; assay type: functional, cell-based; settings: OVCAR-8, 72 h
[33] = test system: DU-145; test: Cytotoxicity against human DU-145 cells assessed as reduction in cell viability incubated for 72 hrs by MTT assay; assay type: functional, cell-based; settings: DU-145, 72 h
[34] = test system: HL-60; test: Cytotoxicity against human HL-60 cells assessed as reduction in cell viability incubated for 72 hrs by alamar blue assay; assay type: functional, cell-based; settings: HL-60, 72 h
[35] = test system: COLO 205; test: Cytotoxicity against human COLO 205 cells assessed as reduction in cell viability incubated for 72 hrs by MTT assay; assay type: functional, cell-based; settings: COLO 205, 72 h
[36] = test system: MX1; test: Cytotoxicity against human MX1 cells assessed as reduction in cell viability incubated for 72 hrs by MTT assay; assay type: functional, cell-based; settings: MX1, 72 h

CC1(C)OC2=C(C(=O)C(=O)c3ccccc32)C1n1cc(C2(O)CCCCC2)nn1 (stereo not given)
16 µg/mL: MIC [4]
430 nM: IC50 [1] | IC50 [2] | IC50 [3] | IC50 [5] | IC50 [6] | IC50 [7]

CC1(C)OC2=C(C(=O)C(=O)c3ccccc32)C1Sc1ccccc1 (stereo not given)
2.96: selectivity ratio [11]
900 nM: IC50 [9] | IC50 [5] | IC50 [10] | IC50 [6]
2.11: selectivity ratio [8]
11 mm: zone diameter [12]

CC1(C)Oc2c(c3nc4ccccc4nc3c3ccccc23)CC1S(=O)(=O)O (stereo not given)
98%: inhibition in vivo at 200 mg/kg [13]

O=C1C(=O)c2ccccc2C2=C1CC(C[Se]c1cccs1)O2 (stereo not given)
1060 nM: IC50 [14] | IC50 at 72 h [15] | IC50 [16] | IC50 [10] | IC50 [6] | IC50 [17]

Cc1ccc(C2CC(c3ccccc3)C3=C(O2)c2ccccc2C(=O)C3=O)cc1 (stereo not given)
3.12 µg/mL: MIC [18]

O=C1C(=O)c2ccccc2C2=C1CC(c1ccccc1)O2 (stereo not given)
0.06 µM: MIC [22]
2 µM: MIC [19] | MIC [20]
0.03 µM: MIC [21]

CC1(C)OC2=C(C(=O)C(=O)c3ccccc32)C1n1cc(C[Se]c2ccccc2)nn1 (stereo not given)
1060 nM: IC50 [14] | IC50 at 72 h [15] | IC50 [16] | IC50 [10] | IC50 [6] | IC50 [17]

CC1(C)OC2=C(C(=O)C(=O)c3ccccc32)[C@H](n2cc(C[Se]c3ccc(F)cc3)nn2)[C@H]1Br
1060 nM: IC50 [6]
1320 nM: IC50 [23]

CC1(C)OC2=C(C(=O)C(=O)c3ccccc32)C1n1cc(-c2ccc(Nc3ccccn3)c3nsnc23)nn1 (stereo not given)
480 nM: IC50 [24] | IC50 [25] | IC50 [26] | IC50 [9] | IC50 [27] | IC50 [28] | IC50 [3] | IC50 [29] | IC50 [30] | IC50 [31] | IC50 [5] | IC50 [32] | IC50 [33] | IC50 [34] | IC50 [35] | IC50 [6] | IC50 [17] | IC50 [7] | IC50 [36]

O=C(N[C@H](CO)[C@H](O)c1ccc([N+](=O)[O-])cc1)C(Cl)Cl [CHLORAMPHENICOL]
12 µg/mL: MIC [4]

O=C1C(=O)c2ccccc2C2=C1CCC(c1ccccc1)O2 (stereo not given)
2.5 µg/mL: MIC [18]

Reference: ChEMBL document CHEMBL5104093, “A comprehensive review on β-lapachone: Mechanisms, structural modifications, and therapeutic potentials” (Eur J Med Chem, 2021)
